Data taken from patent US4029650A, “Novel derivatives of N-(3,4,5-trimethoxy cinnamoyl)piperazine and the process for preparing them” (priority 1974, dated 1977).
Structures can show the parent of a compound that is named as a salt. Where two headings read alike, the source gives them in different places.

Key:
[1] = Antihypertensive properties in genetically hypertensive (vigil SHR) rat; assay type: in vivo; details: for Hypertensive action (vigil SHR rat), effect: 100 mg/kg p.o.
[2] = Peripheral vasodilatory action: increase of femoral artery flow, anaesthetised dog, intra-arterial; assay type: in vivo; details: 500 μg/kg (0.5 mg/kg) i.a.
[3] = Coronary vasodilatory action: increase of flow in the anterior interventricular artery, anaesthetised dog, intravenous; assay type: in vivo
Acute toxicity (mouse) = details: in vivo; for LD50: read-out: Acute toxicity (DL 50) (converted); for mortality: read-out: Percentage mortality
[4] = Increase of flow and oxygenation of the coronary veinous sinus, intravenous perfusion; assay type: in vivo, dog
Protocol: Furthermore, administered by intravenous perfusion, the derivatives of formula I are capable of increasing the flow and oxygenation of the coronary veinous sinus, the flow of the coronary veinous sinus being measured volumetrically by means of a modified MORAWITZ probe, whilst the oxygen content of the coronary veinous blood is calculated from the rate of hemoglobin saturation measured by hemoreflectometry.

[5] = Cerebral vasodilatory properties: sub-cortical irrigation, anaesthetised cat; assay type: in vivo; details: 8 mg/kg i.v.
Excerpt: Administered to an anaesthetised cat by single intravenous injection, the derivatives of formula I are capable of increasing the sub-cortical irrigation measured according to a technique derived from the thermoconductimetric method of SEYLAZ.

[6] = 12.5 mg/kg i.v. perfused in 10 min. (1 ml/min)
[7] = 17.5 mg/kg intravenous perfusion
[8] = 100 mg/kg po, genetically hypertensive rat
[9] = anaesthetised dog, 4 mg/kg i.v.
[10] = 12.7 mg/kg intravenous perfusion
[11] = anaesthetised dog, 2 mg/kg i.v.

COc1cc(C=CC(=O)N2CCN(CC(=O)N3CCCC3)CC2)cc(OC)c1OC [67 350, reference compound]
Hypertensive action (vigil SHR rat), effect ([1]; 4 h): -40% | Hypertensive action (vigil SHR rat), effect ([1]; 24 h): -20% | duration of increase of femoral artery flow [2]: 12 min | increase of femoral artery flow [2]: 82% | duration of increase of flow in the anterior interventricular artery [3, 6]: 60 min | increase of flow in the anterior interventricular artery [3, 6]: 59% | LD50 (Acute toxicity (mouse); iv, mouse, i.v.): 617 mg/kg | LD50 (Acute toxicity (mouse); po, mouse, p.o.): 1000 mg/kg | mortality (Acute toxicity (mouse); mouse, iv, 617 mg/kg, intravenously (mouse), 617 mg/kg): 50% | mortality (Acute toxicity (mouse); mouse, po, 1000 mg/kg, orally (mouse), 1 000 mg/kg): 50%

COc1cc(C=CC(=O)N2CCN(CC(=O)N3CCCCC3)CC2)cc(OC)c1OC.O=C(O)/C=C\C(=O)O [74 0479, N-(3,4,5-trimethoxycinnamoyl)-N'-(piperidinocarbonylmethyl) piperazine maleate]
Increase of flow of the coronary veinous sinus [4, 7]: 50% | Increase of oxygenation of the coronary veinous sinus [4, 7]: 132% | duration of effect on flow of the coronary veinous sinus [4, 7]: 15 min | duration of effect on oxygenation of the coronary veinous sinus [4, 7]: 30 min | animals with systolic arterial pressure lowered by 30 mmHg [1, 8]: 60% | duration of lowering of the systolic arterial pressure [1, 8]: exceeding 24 hours | lowering of the systolic arterial pressure ([1]; 100 mg/kg po, genetically hypertensive rat, in 60% of the animals): 30 mmHg | duration of increase of femoral artery flow [2]: 3 min | increase of femoral artery flow [2]: 120% | duration of increase of flow in the anterior interventricular artery [3, 9]: 40 min | increase of flow in the anterior interventricular artery [3, 9]: 190% | LD50 (Acute toxicity (mouse); iv, mouse, i.v.): 700 mg/kg | LD50 (Acute toxicity (mouse); po, mouse, p.o.): 2250 mg/kg | mortality (Acute toxicity (mouse); mouse, iv, 700 mg/kg, intravenously (mouse), 700 mg/kg): ~50% | mortality (Acute toxicity (mouse); mouse, po, 250 mg/kg, orally (mouse), 2 250 mg/kg): 50% | duration of increase in the sub-cortical flow [5]: 47 min | increase in the sub-cortical flow [5]: 58%

COc1cc(C=CC(=O)N2CCN(CC(=O)N3CCCCCCC3)CC2)cc(OC)c1OC [74 0678, N-(3,4,5-trimethoxycinnamoyl)-N'-(heptamethyleniminocarbonylmethyl) piperazine oxalate]
Increase of flow of the coronary veinous sinus [4, 10]: 65% | Increase of oxygenation of the coronary veinous sinus [4, 10]: 162% | duration of effect on flow of the coronary veinous sinus [4, 10]: 30 min | duration of effect on oxygenation of the coronary veinous sinus [4, 10]: 60 min | duration of increase of femoral artery flow [2]: 4.5 min | increase of femoral artery flow [2]: 226% | duration of increase of flow in the anterior interventricular artery [3, 11]: 8.3 min | increase of flow in the anterior interventricular artery [3, 11]: 148% | mortality (Acute toxicity (mouse); iv, intravenously (mouse), 255 mg/kg): ~50% | LD50 (Acute toxicity (mouse); iv, mouse, i.v.): 255 mg/kg | duration of increase in the sub-cortical flow [5]: 5 min | increase in the sub-cortical flow [5]: 45%

COc1cc(C=CC(=O)N2CCN(CC(=O)N3CCc4ccccc4C3)CC2)cc(OC)c1OC [75 0001, N-(3,4,5-trimethoxycinnamoyl)-N'-(1,2,3,4-tetrahydroisoquinolinocarbonylmethyl)piperazine]
Increase of flow of the coronary veinous sinus ([4]; 29 mg/kg intravenous perfusion): 88% | Increase of oxygenation of the coronary veinous sinus ([4]; 29 mg/kg intravenous perfusion): 142% | duration of effect on flow of the coronary veinous sinus ([4]; 29 mg/kg intravenous perfusion): 15 min | duration of effect on oxygenation of the coronary veinous sinus ([4]; 29 mg/kg intravenous perfusion): 60 min | duration of increase of femoral artery flow [2]: 7 min | increase of femoral artery flow [2]: 106% | duration of increase of flow in the anterior interventricular artery [3, 9]: 19 min | increase of flow in the anterior interventricular artery [3, 9]: 45% | mortality (Acute toxicity (mouse); iv, intravenously (mouse), 580 mg/kg): ~50% | LD50 (Acute toxicity (mouse); iv, mouse, i.v.): 580 mg/kg | duration of increase in the sub-cortical flow [5]: 22 min | increase in the sub-cortical flow [5]: 105%

COc1ccc(CCN(C)C(=O)CN2CCN(C(=O)C=Cc3cc(OC)c(OC)c(OC)c3)CC2)cc1OC [75 0002, N-(3,4,5-trimethoxycinnamoyl)-N'-[N"-methyl N"-(3,4-dimethoxyphenylethyl)aminocarbonylmethyl] piperazine]
Increase of flow of the coronary veinous sinus ([4]; 20 mg/kg intravenous perfusion): 124% | Increase of oxygenation of the coronary veinous sinus ([4]; 20 mg/kg intravenous perfusion): 214% | duration of effect on flow of the coronary veinous sinus ([4]; 20 mg/kg intravenous perfusion): 15 min | duration of effect on oxygenation of the coronary veinous sinus ([4]; 20 mg/kg intravenous perfusion): 60 min | duration of increase of femoral artery flow [2]: 8 min | increase of femoral artery flow [2]: 105% | duration of increase of flow in the anterior interventricular artery [3, 9]: 19 min | increase of flow in the anterior interventricular artery [3, 9]: 100% | mortality (Acute toxicity (mouse); iv, intravenously (mouse), 200 mg/kg): ~50% | LD50 (Acute toxicity (mouse); iv, mouse, i.v.): 200 mg/kg | LD50 (Acute toxicity (mouse); po, mouse, p.o.): 2000 mg/kg | mortality (Acute toxicity (mouse); mouse, po, 2000 mg/kg, orally (mouse), 2 000 mg/kg): 30%
